Results as given in the supplement of paper PMC11208160.

Test: recombinant barcode read abundance after kanamycin selection (control-corrected) (log10(CPM+1)); higher = more efficient recombination; sequences stand for … in AGTGCAGAGAAAATCGGCCAGTTTTCTCTGCCTGCAGTCCGCATGCCGT…ATTTATGCAGCGGACTGCCTTTCTCCCAAAGTGATAAACCGGACAGTATCATGGACCGGTTTTCCCGGTAATCCGTATTTGCAAGGTTGGTTTCACT; site = the 11-nt target
Procedure, shortened: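 Recombination efficiency draws on barcodes counted at recombinant junctions in a pooled E. coli screen of targets paired with IS621 bridge RNA target-binding loops. The counts were converted to counts per million, averaged and corrected against the chloramphenicol/ampicillin LB agar control, then reported as log10(CPM+1). Selection plates held chloramphenicol/ampicillin/kanamycin with 0.1 mM IPTG, with two replicates per condition.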

“GAGGCCTAGTGGGTTCTAACCTGTTGCCACT [GAGGCCTCTTG_LTGcore_AG_RTGcore_AG] (site GAGGCCTCTTG) (LTG core: AG, RTG core: AG)” and “GGGAGCCGTTGGGTTCTAACCTGTTGCTGAC [GGGAGCCCTCA_LTGcore_GT_RTGcore_GT] (site GGGAGCCCTCA) (LTG core: GT, RTG core: GT)” are within 0.2 log units of each other in “recombinant barcode read abundance (log10)” value: 0.159 for the first, 0.168 for the second.

First: GCGGGACCTTGGGTTCTAACCTGTTGCCTCT [GCGGGACCTAG_LTGcore_CT_RTGcore_AG] (site GCGGGACCTAG) (LTG core: CT, RTG core: AG)
Second: AGTCTTACTTGGGTTCTAACCTGTTGCCATC [AGTCTTACTTG_LTGcore_CT_RTGcore_GA] (site AGTCTTACTTG) (LTG core: CT, RTG core: GA)
The “recombinant barcode read abundance (log10)” value of the first is higher: 0.713 for the first, 0.155 for the second.

With “GGTGCCCGATGGGTTCTAACCTGTTGCCGTC [GGTGCCCCTCG_LTGcore_GA_RTGcore_GA] (site GGTGCCCCTCG) (LTG core: GA, RTG core: GA)” the “recombinant barcode read abundance (log10)” value was 0.134.
